Patent US20210386068A1, “COMPOSITIONS COMPRISING PYRIDINE CARBOXYLATE HERBICIDES AND VERY LONG CHAIN FATTY ACID (VLCFA) SYNTHESIS INHIBITOR HERBICIDES” (priority 2018, published 2021)

Experiments:
Type in all cases: in vivo
[1] = test system: Brassica napus (winter rape, BRSNW); assay: Greenhouse postemergence herbicidal effect, visual injury 20-22 d after spraying, winter rape (BRSNW); settings: BRSNW
Excerpt: (§1) Seeds of the desired test plant species were planted in a 90:10% v/v (volume/volume) mixture of PRO-MIX® BX (Premier Tech Horticulture, Quakertown, Pa., USA) and PROFILE® GREENS GRADE™ (Profile Products LLC, Buffalo Grove, Ill., USA) planting mixture, which typically has a pH of 5.2 to 6.2 and an organic matter content of at least 50 percent, in plastic pots with a surface area of 103.2 square centimeters (cm^2). In some aspects, to ensure good germination and healthy plants, a fungicide treatment and/or other chemical or physical treatment was applied. The plants were grown for 7-36 days (d) in a greenhouse with an approximate 14-hour (h) photoperiod which was maintained at about 23° C. during the day and 22° C. during the night. Nutrients and water were added on a regular basis and supplemental lighting was provided with overhead metal halide 1000-Watt lamps as necessary. The plants were employed for testing when they reached the second or third true leaf stage.
(§2) Emulsifiable concentrates of each of each pyridine carboxylate herbicide (Compound A or Compound B) were prepared at 100 grams acid equivalent per liter (g ae/L). The emulsifiable concentrates also included a safener, cloquintocet-mexyl, at 120 grams active ingredient per liter (g ai/L). An aliquot of each emulsifiable concentrate was placed in a 25 mL glass vial and diluted with an aqueous mixture of 1.25% (v/v) ACTIROB® B esterified rapeseed oil (Bayer Crop Science, Research Triangle Park, N.C., USA) or MSO® Concentrate with LECI-TECH® methylated soybean oil (Loveland Products, Loveland, Colo., USA) to obtain concentrated stock solutions at the highest application rate for each herbicide, based upon a 12 milliliter (mL) application volume at a rate of 187 liters per hectare (L/ha). The concentrated stock solutions were further diluted with an aqueous mixture of 1.25% v/v ACTIROB® B or MSO® Concentrate with LECI-TECH® to obtain stock solutions at reduced application rates for each herbicide. Spray solutions of the herbicide combinations (Compound A or Compound B plus VLCFA synthesis inhibitor herbicide) were prepared by adding weighed amounts or aliquots of the VLCFA synthesis inhibitor herbicide to the stock solutions of Compound A or Compound B to form 12-mL spray solutions in two-way combinations.
(§3) The spray solutions were applied to the plant material with an overhead Mandel track sprayer equipped with 8002E nozzles calibrated to deliver 187 L/ha over an application area of 0.503 square meters (m^2) at a spray height of 18 inches ([…] (cm)) above the average plant canopy. Control plants were sprayed in the same manner with the solvent blank. All pyridine carboxylate herbicide (component a) application rates are given as “g ae/ha” and all VLCFA synthesis inhibitor herbicide (component b) application rates are given as “g ai/ha.”
(§4) The treated plants and control plants were placed in a greenhouse as described above and watered by sub-irrigation to prevent wash-off of the test compounds. After 20-22 d, the condition of the test plants as compared with that of the control plants was determined visually and scored on a scale of 0 to 100 percent where 0 corresponds to no injury and 100 corresponds to complete kill.

[2] = test system: Polygonum convolvulus (wild buckwheat, POLCO); assay: Greenhouse postemergence herbicidal effect, visual injury 20-22 d after spraying, wild buckwheat (POLCO); settings: POLCO
Excerpt: as §1, §2, §3, §4

[3] = test system: Sinapis arvensis (wild mustard, SINAR); assay: Greenhouse postemergence herbicidal effect, visual injury 20-22 d after spraying, wild mustard (SINAR); settings: SINAR
Excerpt: as §1, §2, §3, §4

[4] = test system: Salsola kali (Russian thistle, SASKR); assay: Greenhouse postemergence herbicidal effect, visual injury 20-22 d after spraying, Russian thistle (SASKR); settings: SASKR
Excerpt: as §1, §2, §3, §4

[5] = test system: Kochia scoparia (kochia, KCHSC); assay: Greenhouse postemergence herbicidal effect, visual injury 20-22 d after spraying, kochia (KCHSC); settings: KCHSC
Excerpt: as §1, §2, §3, §4

[6] = test system: Chenopodium album L. (common lambsquarters, CHEAL); assay: Greenhouse postemergence herbicidal effect, visual injury 20-22 d after spraying, common lambsquarters (CHEAL)
Excerpt: as §1, §2, §3, §4

[7] = test system: Amaranthus retroflexus (pigweed, AMARE); assay: Greenhouse postemergence herbicidal effect, visual injury 20-22 d after spraying, pigweed (AMARE)
Excerpt: as §1, §2, §3, §4

[8] = test system: Matricaria chamomilla (wild chamomile, MATCH); assay: Greenhouse postemergence herbicidal effect, visual injury 20-22 d after spraying, wild chamomile (MATCH); settings: MATCH
Excerpt: as §1, §2, §3, §4

[9] = test system: Cirsium arvense (Canadian thistle, CIRAR); assay: Greenhouse postemergence herbicidal effect, visual injury 20-22 d after spraying, Canadian thistle (CIRAR); settings: CIRAR
Excerpt: as §1, §2, §3, §4

[10] = test system: Triticum aestivum (spring wheat, TRZAS); assay: Greenhouse postemergence crop phytotoxicity, visual injury 20-22 d after spraying, spring wheat (TRZAS); settings: TRZAS
Excerpt: as §1, §2, §3, §4

[11] = test system: Hordeum vulgare (spring barley, HORVS); assay: Greenhouse postemergence crop phytotoxicity, visual injury 20-22 d after spraying, spring barley (HORVS); settings: HORVS
Excerpt: as §1, §2, §3, §4

[12] = test system: Brassica napus (spring rape, BRSNN); assay: Greenhouse postemergence herbicidal effect, visual injury 20-22 d after spraying, spring rape (BRSNN)
Excerpt: as §1, §2, §3, §4

## Cn1nc(C(F)(F)F)c(CS(=O)(=O)C2=NOC(C)(C)C2)c1OC(F)F [Pyroxasulfone, 3-[[[5-(difluoromethoxy)-1-methyl-3-(trifluoromethyl)-1H-pyrazol-4-yl]methyl]sulfonyl]-4,5-dihydro-5,5-dimethylisoxazole]
[1]; Pyroxasulfone 100 g/ha alone
  % visual injury: 5%
[2]; Pyroxasulfone 100 g/ha alone
  % visual injury: 0%
[3]; Pyroxasulfone 100 g/ha alone
  % visual injury: 28%
[4]; Pyroxasulfone 100 g/ha alone
  % visual injury: 10%
[5]; Pyroxasulfone 100 g/ha alone
  % visual injury: 0%
[6]; Pyroxasulfone 100 g/ha alone
  % visual injury: 0%
[7]; Pyroxasulfone 100 g/ha alone
  % visual injury: 5%
[8]; Pyroxasulfone 100 g/ha alone
  % visual injury: 0%
[9]; Pyroxasulfone 100 g/ha alone
  % visual injury: 0%

## S-Metolachlor
[1]; S-Metolachlor 500 g/ha alone
  % visual injury Obs: 0%
[2]; S-Metolachlor 500 g/ha alone
  % visual injury Obs: 0%
[3]; S-Metolachlor 500 g/ha alone
  % visual injury Obs: 0%
[4]; S-Metolachlor 500 g/ha alone
  % visual injury Obs: 0%
[5]; S-Metolachlor 500 g/ha alone
  % visual injury Obs: 0%
[6]; S-Metolachlor 500 g/ha alone
  % visual injury Obs: 0%
[7]; S-Metolachlor 500 g/ha alone
  % visual injury Obs: 0%
[8]; S-Metolachlor 500 g/ha alone
  % visual injury Obs: 0%
[9]; S-Metolachlor 500 g/ha alone
  % visual injury Obs: 0%
[10]; S-Metolachlor 500 g/ha alone
  % visual injury Obs: 0%
[11]; S-Metolachlor 500 g/ha alone
  % visual injury Obs: 0%

## CCCCOCN(C(=O)CCl)c1c(CC)cccc1CC [Butachlor, N-(butoxymethyl)-2-chloro-N-(2,6-diethylphenyl) acetamide]
[1]; Butachlor 450 g/ha alone
  % visual injury Obs: 0%
[2]; Butachlor 450 g/ha alone
  % visual injury Obs: 0%
[3]; Butachlor 450 g/ha alone
  % visual injury Obs: 0%
[4]; Butachlor 450 g/ha alone
  % visual injury Obs: 0%
[5]; Butachlor 450 g/ha alone
  % visual injury Obs: 0%
[6]; Butachlor 450 g/ha alone
  % visual injury Obs: 0%
[7]; Butachlor 450 g/ha alone
  % visual injury Obs: 0%
[8]; Butachlor 450 g/ha alone
  % visual injury Obs: 5%
[9]; Butachlor 450 g/ha alone
  % visual injury Obs: 0%

## COC[C@H](C)N(C(=O)CCl)c1c(C)csc1C [Dimethenamid-P, (S)-2-chloro-N-(2,4-dimethyl-3-thienyl)-N-(2-methoxy-1-methyl-ethyl)acetamide]
[2]; Dimethenamid-P 560 g/ha alone
  % visual injury Obs: 0%
[3]; Dimethenamid-P 560 g/ha alone
  % visual injury Obs: 0%
[4]; Dimethenamid-P 560 g/ha alone
  % visual injury Obs: 0%
[5]; Dimethenamid-P 560 g/ha alone
  % visual injury Obs: 0%
[6]; Dimethenamid-P 560 g/ha alone
  % visual injury Obs: 0%
[7]; Dimethenamid-P 560 g/ha alone
  % visual injury Obs: 10%
[8]; Dimethenamid-P 560 g/ha alone
  % visual injury Obs: 0%
[9]; Dimethenamid-P 560 g/ha alone
  % visual injury Obs: 0%
[12]; Dimethenamid-P 560 g/ha alone
  % visual injury Obs: 0%

## CCN(C(=O)n1nnn(-c2ccccc2Cl)c1=O)C1CCCCC1 [Fentrazamide, 4-(2-chlorophenyl)-N-cyclohexyl-N-ethyl-4,5-dihydro-5-oxo-1H-tetrazole-1-carboxamide]
[1]; Fentrazamide 200 g/ha alone
  % visual injury Obs: 0%
[2]; Fentrazamide 200 g/ha alone
  % visual injury Obs: 5%
[3]; Fentrazamide 200 g/ha alone
  % visual injury Obs: 0%
[4]; Fentrazamide 200 g/ha alone
  % visual injury Obs: 0%
[5]; Fentrazamide 200 g/ha alone
  % visual injury Obs: 0%
[6]; Fentrazamide 200 g/ha alone
  % visual injury Obs: 0%
[7]; Fentrazamide 200 g/ha alone
  % visual injury Obs: 0%
[8]; Fentrazamide 200 g/ha alone
  % visual injury Obs: 0%
[9]; Fentrazamide 200 g/ha alone
  % visual injury Obs: 0%
[10]; Fentrazamide 200 g/ha alone
  % visual injury Obs: 0%
[11]; Fentrazamide 200 g/ha alone
  % visual injury Obs: 0%

## CCOCCN(C(=O)CCl)C(=C(C)C)c1ccccc1 [Pethoxamid, 2-chloro-N-(2-ethoxyethyl)-N-(2-methyl-1-phenyl-1-propen-1-yl)acetamide]
[1]; Pethoxamid 600 g/ha alone
  % visual injury Obs: 0%
[2]; Pethoxamid 600 g/ha alone
  % visual injury Obs: 0%
[3]; Pethoxamid 600 g/ha alone
  % visual injury Obs: 0%
[4]; Pethoxamid 600 g/ha alone
  % visual injury Obs: 0%
[5]; Pethoxamid 600 g/ha alone
  % visual injury Obs: 0%
[6]; Pethoxamid 600 g/ha alone
  % visual injury Obs: 0%
[7]; Pethoxamid 600 g/ha alone
  % visual injury Obs: 0%
[8]; Pethoxamid 600 g/ha alone
  % visual injury Obs: 0%
[9]; Pethoxamid 600 g/ha alone
  % visual injury Obs: 0%
[10]; Pethoxamid 600 g/ha alone
  % visual injury Obs: 0%
[11]; Pethoxamid 600 g/ha alone
  % visual injury Obs: 0%

## CN(C(=O)COc1nc2ccccc2s1)c1ccccc1 [Mefenacet, 2-(2-benzothiazolyloxy)-N-methyl-N-phenylacetamide]
[2]; Mefenacet 50 g/ha alone
  % visual injury Obs: 0%
[3]; Mefenacet 50 g/ha alone
  % visual injury Obs: 0%
[4]; Mefenacet 50 g/ha alone
  % visual injury Obs: 0%
[5]; Mefenacet 50 g/ha alone
  % visual injury Obs: 0%
[6]; Mefenacet 50 g/ha alone
  % visual injury Obs: 0%
[8]; Mefenacet 50 g/ha alone
  % visual injury Obs: 0%
[12]; Mefenacet 50 g/ha alone
  % visual injury Obs: 5%

## CCN(CC)C(=O)n1cnc(S(=O)(=O)c2c(C)cc(C)cc2C)n1 [Cafenstrole, N,N-diethyl-3-[(2,4,6-trimethylphenyl)sulfonyl]-1H-1,2,4-triazole-1-carboxamide]
[2]; Cafenstrole 52.5 g/ha alone
  % visual injury Obs: 5%
[3]; Cafenstrole 52.5 g/ha alone
  % visual injury Obs: 0%
[4]; Cafenstrole 52.5 g/ha alone
  % visual injury Obs: 0%
[5]; Cafenstrole 52.5 g/ha alone
  % visual injury Obs: 5%
[6]; Cafenstrole 52.5 g/ha alone
  % visual injury Obs: 0%
[8]; Cafenstrole 52.5 g/ha alone
  % visual injury Obs: 5%
[10]; Cafenstrole 52.5 g/ha alone
  % visual injury Obs: 0%
[11]; Cafenstrole 52.5 g/ha alone
  % visual injury Obs: 0%
[12]; Cafenstrole 52.5 g/ha alone
  % visual injury Obs: 5%
